Measured values published in US10167262B2, “Herbicidal substituted 3-arylpyrazoles” (FMC CORPORATION, priority 2014, dated 2019).

What was measured:
Assay in all cases: Test C pre-/postemergence greenhouse test, plant response rating 0-100
Type in all cases: in vivo
[1] = tested on: Italian ryegrass (Lolium multiflorum)
From the text: (§1) Seeds of plant species selected from blackgrass (Alopecurus myosuroides), Italian ryegrass (Lolium multiflorum), winter wheat (Triticum aestivum), galium (catchweed bedstraw, Galium aparine), corn (Zea mays), large (Lg) crabgrass (Digitaria sanguinalis), giant foxtail (Setaria faberii), johnsongrass (Sorghum halepense), lambsquarters (Chenopodium album), morningglory (Ipomoea coccinea), yellow nutsedge (Cyperus esculentus), pigweed (Amaranthus retroflexus), ragweed (common ragweed, Ambrosia elatior), soybean (Glycine max), barnyardgrass (Echinochloa crus-galli), oilseed rape (Brassica napus), waterhemp (common waterhemp, Amaranthus rudis), and velvetleaf (Abutilon theophrasti) were planted into a blend of loam soil and sand and treated preemergence with test chemicals formulated in a non-phytotoxic solvent mixture which included a surfactant.
(§2) At the same time, plants selected from these crop and weed species and also winter barley (Hordeum vulgare), bermudagrass (Cynodon dactylon), downy bromegrass (Bromus tectorum), canarygrass (Phalaris minor), cocklebur (common cocklebur, Xanthium strumarium), woolly cupgrass (Eriochloa villosa), deadnettle (henbit deadnettle, Lamium amplexicaule), green foxtail (Setaria viridis), goosegrass (Eleusine indica), surinam grass (Brachiaria decumbens), windgrass (Apera spica-venti), chickweed (common chickweed, Stellaria media), kochia (Kochia scoparia), and wild oat (Avena fatua), were planted in pots containing Redi-Earth® planting medium (Scotts Company, 14111 Scottslawn Road, Marysville, Ohio 43041) comprising spaghnum peat moss, vermiculite, wetting agent and starter nutrients and treated with postemergence applications of test chemicals formulated in the same manner. Plants ranged in height from 2 to 18 cm (1- to 4-leaf stage) for postemergence treatments. Treated plants and controls were maintained in a greenhouse for 13 to 15 days, after which time all species were compared to controls and visually evaluated. Plant response ratings, summarized in Table C, are based on a scale of 0 to 100 where 0 is no effect and 100 is complete control. A dash (-) response means no test result.

[2] = tested on: blackgrass (Alopecurus myosuroides)
From the text: as §1, §2

corn (Zea mays) = tested on: corn (Zea mays)
From the text: as §1, §2

[3] = tested on: giant foxtail (Setaria faberii)
From the text: as §1, §2

[4] = tested on: johnsongrass (Sorghum halepense)
From the text: as §1, §2

[5] = tested on: lambsquarters (Chenopodium album)
From the text: as §1, §2

[6] = tested on: large (Lg) crabgrass (Digitaria sanguinalis)
From the text: as §1, §2

[7] = tested on: pigweed (Amaranthus retroflexus)
From the text: as §1, §2

[8] = tested on: ragweed (common ragweed, Ambrosia elatior)
From the text: as §1, §2

soybean (Glycine max) = tested on: soybean (Glycine max)
From the text: as §1, §2

[9] = tested on: velvetleaf (Abutilon theophrasti)
From the text: as §1, §2

[10] = tested on: winter wheat (Triticum aestivum)
From the text: as §1, §2

[11] = tested on: yellow nutsedge (Cyperus esculentus)
From the text: as §1, §2

[12] = Postemergence, 250 g ai/ha, scale 0 to 100
[13] = Postemergence, 500 g ai/ha, scale 0 to 100
[14] = Preemergence, 0 to 100 scale (0 no effect, 100 complete control), rate 500 g ai/ha per head r3, sub-head of this section not shown

O=C(c1ccccc1)c1cn(S(=O)(=O)CC(F)(F)F)nc1-c1cc(Cl)cc(Cl)c1 [Compound 3]
65: Plant response rating, Ragweed [8, 12] | Plant response rating, Ragweed [8, 13]
75: Plant response rating, Velvetleaf [9, 12]
50: Plant response rating, Velvetleaf ([9]; Preemergence, 62 g ai/ha)
70: Plant response rating, Ragweed ([8]; Preemergence, 250 g ai/ha) | Plant response rating (0 to 100), Velvetleaf ([9]; Postemergence, 62 g ai/ha) | Plant response rating (0 to 100), Velvetleaf ([9]; Postemergence, 125 g ai/ha)
80: Plant response rating, Lambsquarters [5, 12]
35: Plant response rating, Ragweed [8, 14]
85: Plant response rating (0 to 100), Pigweed ([7]; Postemergence, 62 g ai/ha) | Plant response rating, Velvetleaf [9, 13]
100: Plant response rating, Lambsquarters [5, 13] | Plant response rating, Lambsquarters ([5]; Preemergence, 62 g ai/ha) | Plant response rating, Lambsquarters ([5]; Preemergence, 125 g ai/ha) | Plant response rating, Lambsquarters ([5]; Preemergence, 250 g ai/ha) | Plant response rating, Lambsquarters ([5]; Preemergence, 500 g ai/ha) | Plant response rating, Pigweed [7, 12] | Plant response rating, Pigweed ([7]; Preemergence, 125 g ai/ha) | Plant response rating, Pigweed ([7]; Preemergence, 250 g ai/ha) | Plant response rating, Pigweed ([7]; Preemergence, 500 g ai/ha) | Plant response rating, Velvetleaf ([9]; Preemergence, 500 g ai/ha)
5: Plant response rating (0 to 100), Corn (corn (Zea mays); Postemergence, 125 g ai/ha) | Plant response rating, Corn (corn (Zea mays); [12]) | Plant response rating, Corn (corn (Zea mays); [13]) | Plant response rating (0 to 100), Crabgrass, Large ([6]; Postemergence, 125 g ai/ha) | Plant response rating, Crabgrass, Large [6, 12] | Plant response rating, Crabgrass, Large [6, 13]
55: Plant response rating (0 to 100), Lambsquarters ([5]; Postemergence, 62 g ai/ha) | Plant response rating, Velvetleaf ([9]; Preemergence, 250 g ai/ha)
95: Plant response rating (0 to 100), Pigweed ([7]; Postemergence, 125 g ai/ha) | Plant response rating, Ragweed ([8]; Preemergence, 500 g ai/ha)
25: Plant response rating (0 to 100), Ragweed ([8]; Postemergence, 125 g ai/ha)
0: Plant response rating (0 to 100), Ryegrass, Italian ([1]; Postemergence, 62 g ai/ha) | Plant response rating (0 to 100), Ryegrass, Italian ([1]; Postemergence, 125 g ai/ha) | Plant response rating, Ryegrass, Italian [1, 12] | Plant response rating, Ryegrass, Italian [1, 13] | Plant response rating, Ryegrass, Italian ([1]; Preemergence, 62 g ai/ha) | Plant response rating, Ryegrass, Italian ([1]; Preemergence, 125 g ai/ha) | Plant response rating, Ryegrass, Italian ([1]; Preemergence, 250 g ai/ha) | Plant response rating, Ryegrass, Italian ([1]; Preemergence, 500 g ai/ha) | Plant response rating, Ryegrass, Italian [1, 14] | Plant response rating (0 to 100), Blackgrass ([2]; Postemergence, 62 g ai/ha) | Plant response rating, Blackgrass ([2]; Postemergence, 125 g ai/ha, scale 0 to 100) | Plant response rating, Blackgrass [2, 12] | Plant response rating, Blackgrass [2, 13] | Plant response rating, Blackgrass ([2]; Preemergence, 62 g ai/ha) | Plant response rating, Blackgrass ([2]; Preemergence, 125 g ai/ha) | Plant response rating, Blackgrass ([2]; Preemergence, 250 g ai/ha) | Plant response rating, Blackgrass ([2]; Preemergence, 500 g ai/ha) | Plant response rating (0 to 100), Corn (corn (Zea mays); Postemergence, 62 g ai/ha) | Plant response rating, Corn (corn (Zea mays); Preemergence, 62 g ai/ha) | Plant response rating, Corn (corn (Zea mays); Preemergence, 125 g ai/ha) | Plant response rating, Corn (corn (Zea mays); Preemergence, 250 g ai/ha) | Plant response rating, Corn (corn (Zea mays); Preemergence, 500 g ai/ha) | Plant response rating (0 to 100), Foxtail, Giant ([3]; Postemergence, 62 g ai/ha) | Plant response rating (0 to 100), Foxtail, Giant ([3]; Postemergence, 125 g ai/ha) | Plant response rating, Foxtail, Giant [3, 12] | Plant response rating, Foxtail, Giant [3, 13] | Plant response rating, Foxtail, Giant ([3]; Preemergence, 62 g ai/ha) | Plant response rating, Foxtail, Giant ([3]; Preemergence, 125 g ai/ha) | Plant response rating, Foxtail, Giant ([3]; Preemergence, 250 g ai/ha) | Plant response rating, Foxtail, Giant ([3]; Preemergence, 500 g ai/ha) | Plant response rating (0 to 100), Johnsongrass ([4]; Postemergence, 62 g ai/ha) | Plant response rating (0 to 100), Johnsongrass ([4]; Postemergence, 125 g ai/ha) | Plant response rating, Johnsongrass [4, 12] | Plant response rating, Johnsongrass [4, 13] | Plant response rating, Johnsongrass ([4]; Preemergence, 62 g ai/ha) | Plant response rating, Johnsongrass ([4]; Preemergence, 125 g ai/ha) | Plant response rating, Johnsongrass ([4]; Preemergence, 250 g ai/ha) | Plant response rating, Johnsongrass ([4]; Preemergence, 500 g ai/ha) | Plant response rating (0 to 100), Crabgrass, Large ([6]; Postemergence, 62 g ai/ha) | Plant response rating, Crabgrass, Large ([6]; Preemergence, 62 g ai/ha) | Plant response rating, Crabgrass, Large ([6]; Preemergence, 125 g ai/ha) | Plant response rating, Crabgrass, Large ([6]; Preemergence, 250 g ai/ha) | Plant response rating, Crabgrass, Large ([6]; Preemergence, 500 g ai/ha) | Plant response rating, Ragweed ([8]; Preemergence, 62 g ai/ha) | Plant response rating, Ragweed ([8]; Preemergence, 125 g ai/ha) | Plant response rating (0 to 100), Soybean (soybean (Glycine max); Postemergence, 62 g ai/ha) | Plant response rating (0 to 100), Soybean (soybean (Glycine max); Postemergence, 125 g ai/ha) | Plant response rating, Soybean (soybean (Glycine max); [12]) | Plant response rating, Soybean (soybean (Glycine max); [13]) | Plant response rating, Soybean (soybean (Glycine max); Preemergence, 62 g ai/ha) | Plant response rating, Soybean (soybean (Glycine max); Preemergence, 125 g ai/ha) | Plant response rating, Soybean (soybean (Glycine max); Preemergence, 250 g ai/ha) | Plant response rating, Soybean (soybean (Glycine max); Preemergence, 500 g ai/ha) | Plant response rating, Soybean (soybean (Glycine max); [14]) | Plant response rating (0 to 100), Wheat ([10]; Postemergence, 62 g ai/ha) | Plant response rating (0 to 100), Wheat ([10]; Postemergence, 125 g ai/ha) | Plant response rating, Wheat [10, 12] | Plant response rating, Wheat [10, 13] | Plant response rating, Wheat ([10]; Preemergence, 62 g ai/ha) | Plant response rating, Wheat ([10]; Preemergence, 125 g ai/ha) | Plant response rating, Wheat ([10]; Preemergence, 250 g ai/ha) | Plant response rating, Wheat ([10]; Preemergence, 500 g ai/ha) | Plant response rating, Wheat ([10]; Preemergence, 0 to 100 scale (0 no effect, 100 complete control), rate 500 g ai/ha) | Plant response rating (0 to 100), Nutsedge, Yellow ([11]; Postemergence, 62 g ai/ha) | Plant response rating (0 to 100), Nutsedge, Yellow ([11]; Postemergence, 125 g ai/ha) | Plant response rating, Nutsedge, Yellow [11, 12] | Plant response rating, Nutsedge, Yellow [11, 13] | Plant response rating, Nutsedge, Yellow ([11]; Preemergence, 62 g ai/ha) | Plant response rating, Nutsedge, Yellow ([11]; Preemergence, 125 g ai/ha) | Plant response rating, Nutsedge, Yellow ([11]; Preemergence, 250 g ai/ha) | Plant response rating, Nutsedge, Yellow ([11]; Preemergence, 500 g ai/ha)
30: Plant response rating, Pigweed ([7]; Preemergence, 62 g ai/ha)
20: Plant response rating (0 to 100), Ragweed ([8]; Postemergence, 62 g ai/ha) | Plant response rating, Velvetleaf [9, 14]
